The values below come from publication PMC11347546, “A radioligand for in vitro autoradiography of CSF1R in post-mortem CNS tissues” (EJNMMI Research, 2024).

Values joined by “and” are separate entries in the source; they are usually repeats but may differ in a detail not shown here. Identical values can stand only once. Like-named read-outs stand apart in the source and are kept apart here.

Series [1] addresses T1, CSF1R (Mus musculus, UniProt P09581).
T1 construct: from tissue; host or cells: whole brain of male CD1 mice, radiotracer injected in vivo, brains counted ex vivo
T1 sequence (P09581 20-977): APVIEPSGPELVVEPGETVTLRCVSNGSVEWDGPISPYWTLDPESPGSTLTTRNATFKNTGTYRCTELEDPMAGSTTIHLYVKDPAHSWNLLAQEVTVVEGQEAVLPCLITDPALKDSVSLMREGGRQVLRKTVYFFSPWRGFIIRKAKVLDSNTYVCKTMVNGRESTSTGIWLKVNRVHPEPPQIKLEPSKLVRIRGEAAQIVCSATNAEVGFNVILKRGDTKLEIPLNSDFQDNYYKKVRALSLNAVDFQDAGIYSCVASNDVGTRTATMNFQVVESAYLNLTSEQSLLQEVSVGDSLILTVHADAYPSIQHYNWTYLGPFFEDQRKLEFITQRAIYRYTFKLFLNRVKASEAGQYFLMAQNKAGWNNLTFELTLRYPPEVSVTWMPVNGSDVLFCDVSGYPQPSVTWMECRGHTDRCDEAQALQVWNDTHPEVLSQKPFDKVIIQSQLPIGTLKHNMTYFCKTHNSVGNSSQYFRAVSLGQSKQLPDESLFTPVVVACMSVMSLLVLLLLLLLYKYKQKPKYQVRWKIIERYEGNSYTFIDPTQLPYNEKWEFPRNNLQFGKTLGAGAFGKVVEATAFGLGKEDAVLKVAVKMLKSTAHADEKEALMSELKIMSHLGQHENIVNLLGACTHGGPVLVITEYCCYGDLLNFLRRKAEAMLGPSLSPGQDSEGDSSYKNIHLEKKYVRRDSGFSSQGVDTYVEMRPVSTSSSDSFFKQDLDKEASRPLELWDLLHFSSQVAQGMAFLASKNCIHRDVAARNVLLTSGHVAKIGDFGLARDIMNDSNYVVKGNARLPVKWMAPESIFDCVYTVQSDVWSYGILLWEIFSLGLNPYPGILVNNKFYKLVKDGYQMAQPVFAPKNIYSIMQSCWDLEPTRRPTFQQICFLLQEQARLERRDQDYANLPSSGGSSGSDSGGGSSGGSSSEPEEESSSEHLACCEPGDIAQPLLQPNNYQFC
The series can be described thus: Ex vivo brain uptake of [^11C]1 in LPS-induced murine model of neuroinflammation, baseline and CPPC blocking. Details: species or system CD1 mice. How it is done: Studies were performed in a murine LPS-induced neuroinflammation model under the conditions described previously. The percentage of the standardized uptake value (%SUV) uptake in the whole brain at […] after injection was corrected for blood radioactivity as SUV^whole brain/SUV^blood = SUV ratio (SUVR) (Fig. 1).
Fig. 1 Brain uptake of CSF1R radiotracer [^11C]1 in control mice (Base); LPS-treated mice (LPS base); and LPS-treated mice, blocking with CSF1R inhibitor (LPS block). The time point was 45 min after the radiotracer injection. The LPS treatment was IP, 10 mg/kg. Data are mean SUVR ± SD (n = 6). […] Statistical analysis: comparison of LPS-baseline versus control or LPS-block, ANOVA
Brain regional distribution of [^11C]1 in neuroinflammation mouse model: The study was performed in the murine LPS-induced neuroinflammation model described previously. […] The LPS (O111:B4, Calbiochem, San Diego, CA) solution in sterile saline (10 mg/kg, 0.2 mL) was administered intraperitoneally and the radiotracer study was performed on the 3rd day thereafter.
The animals were injected IV with 3.7 MBq (0.1 mCi) [^11C]1 [specific radioactivity = 444 GBq/µmol (12 Ci/µmol)] and sacrificed by cervical dislocation at 45 min after the radiotracer injection. The whole brains were removed, dissected on ice and blood samples (0.2-0.5 cc) were taken from heartand their radioactivity content was determined in a γ-counter LKB/Wallac CompuGamma. The outcome variables were calculated as SUVR = SUVwhole brain/SUVblood.

For series [2], the system named is CSF1R. Details: method as in PMID 18242992. To be noted: read-out: CSF1R functional potency IC50; cited from earlier work.
Series [3] in a line: Ex vivo regional brain distribution of [^11C]1 in control CD1 mice. The settings on record: for Regional brain uptake: mean ± SD, n = 3. Further details: species or system CD1 male mice. On the procedure:
The regional brain uptake of [^11C]1 in control CD1 male mice at three time points after injection of radiotracer is shown in Table 2. […] The uptake in other regions studied here was lower.
Brain regional distribution of [^11C]1 in control mice, baseline: All animal studies were conducted within the guidelines of approved IACUC protocols for mice and non-human primates. Male CD1 mice of four to eight weeks of age, weighing 24-29 g from Charles River Laboratories (Wilmington, MA) were used. […] The brains were removed and dissected on ice. The brain regions (cerebellum, hippocampus, frontal cortex, brain stem and rest of brain) were weighed and their radioactivity content was determined in a γ-counter LKB/Wallac 1283 CompuGamma CS (Bridgeport, CT). The percentage of injected dose per gram of tissue %ID/g tiss was calculated (Table 2).

Series [4] in a line: Dynamic PET brain uptake in control baboon. It is filed as in vivo, Papio anubis baboon. To be noted: peak at 30 min after injection. On the procedure:
Dynamic PET scan was performed on a male baboon (Papio anubis, 27 kg) using the High Resolution Research Tomograph (CPS Innovations, Knoxville, TN) with an IV injection of 751 MBq (20.3 mCi) [^11C]1 [specific radioactivity: 518 TBq/mmol (14,000 Ci/mmol)]. PET imaging and data analysis and radiometabolite analysis of baboon arterial blood are described in detail in the SI Appendix.
PET images were acquired using a CPS/CTI High Resolution Research Tomograph (HRRT), which has an axial resolution (FWHM) of 2.4 mm, and in plane resolution of 2.4–2.8 mm. The animal was anesthetized and handled as described previously. The 90 min PET data were binned into […]: four 15-s, four 30-s, three 1-min, two 2-min, five 4-min, and twelve 5-min frames. Images were reconstructed using the iterative ordered subset expectation maximization (OS-EM) algorithm (with six iterations and 16 subsets) with correction for radioactive decay, deadtime, attenuation, scatter and randoms. The reconstructed image space consisted of cubic voxels, each 1.22 mm^3 in size, and spanning dimensions of 31 cm × 31 cm (transaxially) and 25 cm (axially).
The image analysis and kinetic modeling were performed using software PMOD (v3.7, PMOD Technologies Ltd, Zurich, Switzerland). Dynamic PET images were first co-registered with the MRI images. […]

A short description of series [5]: Radiochemical purity of formulated [^11C]1 after end-of-synthesis by analytical HPLC. The series is classed as physicochemical. The settings on record: within 90 min after the end-of-synthesis. How it is done: To a 1 mL V-vial, precursor, 4-cyano-N-(2-(4-methylpiperidin-1-yl)-4-(piperazin-1-yl)phenyl)-1H-pyrrole-2-carboxamide, 8 (1 mg) was added in solution of 0.2 mL of anhydrous DMF. [^11C]Methyl iodide, carried by a stream of helium, was trapped in the precursor solution. The reaction was heated at 80 °C for 3.5 min, then quenched with 0.2 mL of water. The crude reaction product was purified by reverse-phase high performance liquid chromatography (HPLC) at a flow rate of 12 mL/min. The radiolabelled product [^11C]1 (tR = 7–8 min) was fully separated from the precursor (tR = 2.7 min) and collected in a solution of 0.3 g sodium ascorbate in 50 mL water. The aqueous solution was transferred through an activated Waters Oasis Sep-Pak Light cartridge (Milford, MA). After washing the cartridge with 10 mL saline, the product was eluted with 1 mL of ethanol through a […] sterile filter into a sterile, pyrogen-free vial containing 4 mL saline, and 10 mL of 0.9% saline was added through the same filter. The final product, [^11C]1, was analyzed by analytical HPLC to determine the radiochemical purity (> 99%) and specific radioactivity (15–23 Ci/µmol).
HPLC conditions for [^11C]1. Preparative HPLC: Column, XBridge C18, 10 × 250 mm (Waters, Milford, MA). Mobile phase: 39%:61% acetonitrile: triethylamine-phosphate buffer, pH 7.2. Flow rate: 12 mL/min, retention time 8 min. […]

Series [6] in a line: Radiometabolite analysis of baboon blood. The series is classed as in vivo, Papio anubis baboon. To be noted: 90 min post injection. How it is done: (75%) at 90 min post injection.
Samples were centrifuged at 1200×g and the radioactivity in plasma were measured with a cross-calibrated gamma counter. Selected plasma samples (5, 10, 20, 30, 60, and 90 min) were analyzed with high performance liquid chromatography (HPLC) for radioactive metabolites in plasma as described above.

On the set-up of series [7]: method as in PMID 30635412. The settings on record: baboon blood, 90 min post injection; cited from earlier work.
On the set-up of series [8]: method as in PMID 30635412. The settings on record: baboon brain, baseline PET; cited from earlier work.

Usually IC50 stands for the concentration that gives 50% inhibition. For `CN1CCN(c2ccc(NC(=O)c3ccc(C#N)o3)c(N3CCCCC3)c2)CC1` [CPPC, 5-cyano-N-(4-(4-methylpiperazin-1-yl)-2-(piperidin-1-yl)phenyl)furan-2-carboxamide, reference compound], on CSF1R [1] (CPPC 1 mg/kg IP 5 min before [^11C]1, LPS-treated mice), the “Effect of blocking on [^11C]1 brain uptake (SUVR)” value is reported as “significantly decreased the uptake in the LPS-treated mice to the control level”. Besides, the IC50 in the series on CSF1R [2] is […].
Regarding `CC1CCN(c2cc(N3CCN(C)CC3)ccc2NC(=O)c2cc(C#N)c[nH]2)CC1` [Compound 1, 4-Cyano-N-(4-(4-methylpiperazin-1-yl)-2-(4-methylpiperidin-1-yl)phenyl)-1H-pyrrole-2-carboxamide], the IC50 in the series on CSF1R [2] is […].
As for `CC1CCN(c2cc(N3CCN([11CH3])CC3)ccc2NC(=O)c2cc(C#N)c[nH]2)CC1` [[^11C]1, 4-cyano-N-(4-(4-[^11CH3]methylpiperazin-1-yl)-2-(4-methylpiperidin-1-yl)phenyl)-1H-pyrrole-2-carboxamide], at CSF1R [1] (LPS-treated mice, brain), the “Specific CSF1R binding (share of brain uptake)” value is ~ 50% and 50%. In addition, the “SUVR (SUV whole brain/SUV blood) in LPS-treated mice versus controls” value on CSF1R [1] (whole brain, 40 min after injection, n = 6) was “significantly greater in LPS-treated mice than in controls”. For the same compound, the Regional brain uptake in series [3] (brain stem, 2 min) is 1.78 ± 0.48 %ID/g tissue; in series [3] (brain stem, 30 min), 1.32 ± 0.10 %ID/g tissue; in series [3] (brain stem, 60 min), 0.92 ± 0.11 %ID/g tissue; in series [3] (cerebellum, 2 min), 2.08 ± 0.39 %ID/g tissue; in series [3] (cerebellum, 30 min) it was 1.39 ± 0.04 %ID/g tissue; in series [3] (cerebellum, 60 min) it was 0.95 ± 0.09 %ID/g tissue. Besides, the Regional brain uptake was 2.15 %ID/g tissue and 2.15 ± 0.44 %ID/g tissue in series [3] (frontal cortex, 2 min after injection); 1.49 ± 0.17 %ID/g tissue in series [3] (frontal cortex, 30 min); 1.13 ± 0.08 %ID/g tissue in series [3] (frontal cortex, 60 min); 1.63 ± 0.31 %ID/g tissue in series [3] (hippocampus, 2 min); 1.32 ± 0.10 %ID/g tissue in series [3] (hippocampus, 30 min); 1.01 ± 0.17 %ID/g tissue in series [3] (hippocampus, 60 min). Also, the Regional brain uptake is 1.81 ± 0.34 %ID/g tissue in series [3] (rest of brain, 2 min); 1.31 ± 0.10 %ID/g tissue in series [3] (rest of brain, 30 min); 0.90 ± 0.06 %ID/g tissue in series [3] (rest of brain, 60 min). In series [3] (total mouse brain), the “Total mouse brain uptake” value is reported as ~ 2 % ID/g tissue. This compound also registered a Peak brain uptake in series [4] of 0.36 SUV. For the same compound, in series [5], the “Change of radiochemical purity of final product” value is “did not change”. Further, the Metabolism rate in series [6] stood at 16%.
Consider `[11CH3]N1CCN(c2ccc(NC(=O)c3ccc(C#N)o3)c(N3CCCCC3)c2)CC1` [[^11C]CPPC], for which the Metabolism rate in series [7] is reported as 75%. Besides, the Brain uptake in series [8] was 3.5 SUV.
